This is an account of results in ChEMBL document CHEMBL2169821, “Design, synthesis, and evaluation of pH-dependent hydrolyzable emetine analogues as treatment for prostate cancer” (J Med Chem, 2012).

Activity calls are given as the source filed them. The calls are words filed in the database; no cut-off is given here. Some results are limits rather than exact numbers.

One data set deals with LNCaP. Nature of the data set: Cytotoxicity against human LNCAP cells measured on day 7 by MTT assay. The class given is functional, cell-based. (Tetrazolium assays rely on reduction of a dye to a coloured formazan, in cell work by metabolically active cells.)
The test system of data set [1] is PC-3. Description: Cytotoxicity against human PC3 cells measured on day 7 by MTT assay. The format is functional, cell-based.
Data set [2] can be described thus: Chemical stability of the compound in phosphate buffer up to 48 hrs at pH 6.5 by HPLC analysis. To be noted: pH 6.5, 48 h. The class given is physicochemical.
The nature of data set [3]: Chemical stability of the compound in phosphate buffer up to 48 hrs at pH 5.5 by HPLC analysis. The format is physicochemical. To be noted: pH 5.5, 48 h.
Data set [4] relates to PC-3. Nature of the data set: Cytotoxicity against human PC3 cells measured on day 5 by MTT assay. The format is functional, cell-based.
Data set [5] relates to PC-3. Description: Cytotoxicity against human PC3 cells measured on day 3 by MTT assay. The format is functional, cell-based.
Data set [6] in a line: Prodrug activation in phosphate buffer assessed as emetine formation up to 48 hrs at pH 5.5 by HPLC analysis. The note with it: pH 5.5, 48 h.
The nature of data set [7]: Chemical stability of the compound in phosphate buffer up to 5 days at pH 7.4 by HPLC analysis. To be noted: for remaining at 120 h: phosphate buffer, pH 7.4, read-out: Stability; for Stability: buffer, pH 7.4, 120 h. The format is physicochemical.

For the molecule `CC[C@H]1CN2CCc3cc(OC)c(OC)cc3[C@@H]2C[C@@H]1C[C@@H]1c2cc(OC)c(OC)cc2CCN1S(=O)(=O)c1ccccc1`, the IC50 was 2.26 µM in the data set on LNCaP (Homo sapiens, LNCaP, 168 h) and above 10 µM in the data set on PC-3 [1] (Homo sapiens, PC-3, 168 h). The Stability entry in data set [2] and in data set [3] was “Stable” throughout.
In the case of `CC[C@H]1CN2CCc3cc(OC)c(OC)cc3[C@@H]2C[C@@H]1C[C@@H]1c2cc(OC)c(OC)cc2CCN1C(=O)/C=C\C(=O)O` [listing 1 of 2 here], the result with PC-3 [4] and in the data set with PC-3 [5] was Active.
With `CC[C@H]1CN2CCc3cc(OC)c(OC)cc3[C@@H]2C[C@@H]1C[C@@H]1c2cc(OC)c(OC)cc2CCN1C(=O)NCc1ccc(OC)cc1`, the outcome in the data set on PC-3 [4] and in the data set with PC-3 [5] was Active. Further, the half-inhibitory concentration (IC50) in the data set with LNCaP (Homo sapiens, LNCaP, 168 h) came out at 7.84 µM; in the data set with PC-3 [1] (Homo sapiens, PC-3, 168 h), 3.67 µM. The Stability entry in data set [2] and in data set [3] was “Stable” each time.
In the case of `CC[C@H]1CN2CCc3cc(OC)c(OC)cc3[C@@H]2C[C@@H]1C[C@@H]1c2cc(OC)c(OC)cc2CCN1C(=O)/C=C\C(=O)[O-].[Na+]`, the IC50 worked out at 8.9 µM in the data set with LNCaP (Homo sapiens, LNCaP, 168 h) and 7.71 µM in the data set on PC-3 [1] (Homo sapiens, PC-3, 168 h). For the same molecule, the Drug metabolism entry in data set [6] is given as “Active”. In addition, in data set [7], the remaining at 120 h is 100%.
In the case of `CC[C@H]1CN2CCc3cc(OC)c(OC)cc3[C@@H]2C[C@@H]1C[C@@H]1c2cc(OC)c(OC)cc2CCN1C(=S)SCc1ccccc1`, the result in the data set on PC-3 [4] and with PC-3 [5] was Active. The IC50 is 1.97 µM in the data set on LNCaP (Homo sapiens, LNCaP, 168 h) and 1.56 µM in the data set with PC-3 [1] (Homo sapiens, PC-3, 168 h). The Stability entry in data set [2] and in data set [3] was “Stable” in each case.
As to `CC[C@H]1CN2CCc3cc(OC)c(OC)cc3[C@@H]2C[C@@H]1C[C@@H]1c2cc(OC)c(OC)cc2CCN1C(=S)NCc1ccc(Cl)cc1`, the outcome with PC-3 [4] and in the data set on PC-3 [5] was Active. In addition, the IC50 with LNCaP (Homo sapiens, LNCaP, 168 h) is 1.59 µM; in the data set on PC-3 [1] (Homo sapiens, PC-3, 168 h), 2.86 µM. The Stability result in data set [2] and in data set [3] was “Stable” each time.
Turning to `CC[C@H]1CN2CCc3cc(OC)c(OC)cc3[C@@H]2C[C@@H]1C[C@@H]1c2cc(OC)c(OC)cc2CCN1C(=S)NCc1ccccc1`, the outcome in the data set on PC-3 [4] and in the data set on PC-3 [5] was Active. Further, the 50% inhibitory concentration (IC50) in the data set on LNCaP (Homo sapiens, LNCaP, 168 h) is 2.06 µM; in the data set with PC-3 [1] (Homo sapiens, PC-3, 168 h), 6.92 µM. Besides, the Stability entry in data set [2] and in data set [3] was “Stable” in each case.
As to `CC[C@H]1CN2CCc3cc(OC)c(OC)cc3[C@@H]2C[C@@H]1C[C@@H]1c2cc(OC)c(OC)cc2CCN1C(=O)/C=C(/C)C(=O)O` [listing 1 of 2 here], the 50% inhibitory concentration (IC50) in the data set with LNCaP (lncap) worked out at 0.368 µM; in the data set on PC-3 [1] (pc-3), 0.378 µM. The Drug metabolism entry in data set [6] is on record as “Active”. The same molecule registered a Stability in data set [7] of 100%.
For the molecule `CC[C@H]1CN2CCc3cc(OC)c(OC)cc3[C@@H]2C[C@@H]1C[C@@H]1c2cc(OC)c(OC)cc2CCN1C(=O)CCC(=O)O` [listing 1 of 2 here], the results for the concentration for half-maximal inhibition (IC50) in the data set on LNCaP (lncap) and in the data set on PC-3 [1] (pc-3) were 2.41 µM and 2.1 µM, respectively.
Take `CC[C@H]1CN2CCc3cc(OC)c(OC)cc3[C@@H]2C[C@@H]1C[C@@H]1c2cc(OC)c(OC)cc2CCN1C(=O)NCc1ccccc1`: the outcome in the data set on PC-3 [4] and with PC-3 [5] was Active. Moreover, the 50% inhibitory concentration (IC50) in the data set on LNCaP (Homo sapiens, LNCaP, 168 h) was found to be 2.12 µM; with PC-3 [1] (Homo sapiens, PC-3, 168 h), 7.61 µM. Besides, the Stability entry in data set [2] and in data set [3] was “Stable” throughout.
As for `CC[C@H]1CN2CCc3cc(OC)c(OC)cc3[C@@H]2C[C@@H]1C[C@@H]1c2cc(OC)c(OC)cc2CCN1C(=O)/C=C(/CC(=O)[O-])C(=O)[O-].[Na+].[Na+]`, the outcome with PC-3 [4] and in the data set with PC-3 [5] was Active. Besides, the IC50 in the data set with LNCaP (Homo sapiens, LNCaP, 168 h) was 5.46 µM; in the data set with PC-3 [1] (Homo sapiens, PC-3, 168 h) it was 2.89 µM. The Drug metabolism result in data set [6] is listed as “Active”. In addition, the remaining at 120 h in data set [7] stood at 100%.
In the case of `CC[C@H]1CN2CCc3cc(OC)c(OC)cc3[C@@H]2C[C@@H]1C[C@@H]1c2cc(OC)c(OC)cc2CCN1C(=O)/C=C(/C)C(=O)O` [listing 2 of 2 here], the outcome in the data set on PC-3 [4] was Active.
In the case of `CC[C@H]1CN2CCc3cc(OC)c(OC)cc3[C@@H]2C[C@@H]1C[C@@H]1c2cc(OC)c(OC)cc2CCN1C(=O)CCC(=O)O` [listing 2 of 2 here], the concentration for half-maximal inhibition (IC50) with LNCaP (Homo sapiens, LNCaP, 168 h) worked out at 2.45 µM; in the data set with PC-3 [1] (Homo sapiens, PC-3, 168 h), 2.15 µM.
Regarding `CC[C@H]1CN2CCc3cc(OC)c(OC)cc3[C@@H]2C[C@@H]1C[C@@H]1c2cc(OC)c(OC)cc2CCN1S(=O)(=O)c1ccc(Cl)cc1`, the outcome with PC-3 [4] and in the data set on PC-3 [5] was Active. Also, the half-maximal inhibitory concentration (IC50) in the data set on LNCaP (Homo sapiens, LNCaP, 168 h) was found to be 2.69 µM; in the data set with PC-3 [1] (Homo sapiens, PC-3, 168 h), 4.21 µM. Moreover, the Stability entry in data set [2] and in data set [3] was “Stable” in each case.
On to `CC[C@H]1CN2CCc3cc(OC)c(OC)cc3[C@@H]2C[C@@H]1C[C@@H]1c2cc(OC)c(OC)cc2CCN1C(=S)NCc1ccc(OC)cc1`, for which, in the data set on PC-3 [4], the result was Active. The IC50 with LNCaP (Homo sapiens, LNCaP, 168 h) is 3.39 µM; in the data set on PC-3 [1] (Homo sapiens, PC-3, 168 h), 5 µM. Besides, the Stability result in data set [2] and in data set [3] was “Stable” each time.
`CC[C@H]1CN2CCc3cc(OC)c(OC)cc3[C@@H]2C[C@@H]1C[C@@H]1c2cc(OC)c(OC)cc2CCN1C(=O)/C=C\C(=O)O` [listing 2 of 2 here]: the IC50 stood at 6.78 µM with LNCaP (lncap) and 5.04 µM with PC-3 [1] (pc-3). Also, in data set [6], the Drug metabolism result is reported as “Active”. Further, the Stability in data set [7] is on record as 100%.
Consider `CC[C@H]1CN2CCc3cc(OC)c(OC)cc3[C@@H]2C[C@@H]1C[C@@H]1c2cc(OC)c(OC)cc2CCN1C(=O)OCc1ccccc1`, for which the outcome in the data set with PC-3 [4] and with PC-3 [5] was Active. In addition, the half-inhibitory concentration (IC50) in the data set on LNCaP (Homo sapiens, LNCaP, 168 h) stood at 3.24 µM; in the data set on PC-3 [1] (Homo sapiens, PC-3, 168 h), 6.07 µM. In addition, the Stability entry in data set [2] and in data set [3] was “Stable” each time.
In the case of `CC[C@H]1CN2CCc3cc(OC)c(OC)cc3[C@@H]2C[C@@H]1C[C@@H]1c2cc(OC)c(OC)cc2CCN1C(=O)NCc1ccc(Cl)cc1`, the outcome in the data set on PC-3 [4] and with PC-3 [5] was Active. Besides, the IC50 in the data set with LNCaP (Homo sapiens, LNCaP, 168 h) worked out at 5.41 µM; with PC-3 [1] (Homo sapiens, PC-3, 168 h), 10 µM. In addition, the Stability entry in data set [2] and in data set [3] was “Stable” throughout.
As to `CC[C@H]1CN2CCc3cc(OC)c(OC)cc3[C@@H]2C[C@@H]1C[C@@H]1c2cc(OC)c(OC)cc2CCN1S(=O)(=O)c1ccc(OC)cc1`, the outcome in the data set on PC-3 [4] was Active. For the same molecule, the concentration for half-maximal inhibition (IC50) in the data set on LNCaP (Homo sapiens, LNCaP, 168 h) turned out to be 3.15 µM; with PC-3 [1] (Homo sapiens, PC-3, 168 h) it was 6.08 µM. Moreover, the Stability result in data set [2] and in data set [3] was “Stable” throughout.

One may read the IC50 as the concentration needed to halve the response being measured.
